Laboratory results published in patent US12275958B2, “Gut organoid and method for producing the same” (DAI NIPPON PRINTING CO., LTD., priority 2017, dated 2025).

What was measured:
[1] = test system: hESC-derived gut organoid showing peristalsis-like movement; experiment: In vitro contractility of human gut organoids (motile); type: cell-based; conditions: 0.2 μM, aspect ratio from video; for frequency / rate of gut organoid contractile movement: days 80-90 in culture
Experimental: A single human embryonic stem cell (hESC)-derived gut organoid showing peristalsis-like movement (days 80-90 in culture) was treated with the peristaltic stimulator histamine (0.2 μM) and the cholinergic antagonist atropine sulfate (0.2 μM). Contractility responses were recorded using an inverted microscope. Image analysis software CL-Quant version 3.10 (Nikon Corporation) was used to visualize movements in the gut organoid. First, in each frame of the time-lapse images, the software was used to identify a specific region of the organoid. Second, the software fitted an ellipse to this region and calculated the ratio of the longest to shortest diameter to obtain an aspect ratio. Changes in the aspect ratios with time were plotted on the chart. Videos were recorded at 30 frames per second.

human gut organoids = experiment: In vitro β-Ala-Lys-AMCA uptake by human gut organoids; type: cell-based; conditions: 25 μM, 4 hours at 37° C., fluorescence
Experimental: Gut organoids grown in the differentiation induction medium 2 were washed with PBS and cultured in DMEM containing 25 μM fluorophore-conjugated dipeptide β-Ala-Lys-AMCA (Biotrend Chemicals) for 4 hours at 37° C. […] All sample images were recorded under standard conditions. For each concentration, 3 independent assays were performed.

Row | Compound | contraction amplitude [1] | frequency / rate of gut organoid contractile movement [1] | uptake (peptide absorption) of the fluorophore-conjugated dipeptide by gut organoids (human gut organoids) | uptake (peptide absorption) of the fluorophore-conjugated dipeptide by gut organoids (human gut organoids; listed as β-Ala-Lys-N(c)-7-amino-4-methylcoumarin-3-acetic acid)
1 | CN1[C@@H]2CC[C@H]1CC(OC(=O)C(CO)c1ccccc1)C2.CN1[C@@H]2CC[C@H]1CC(OC(=O)C(CO)c1ccccc1)C2.O=S(=O)(O)O (some centres unmarked) [atropine, atropine sulfate] | decreased | decreased | – | –
2 | NCCc1c[nH]cn1 [histamine] | – | increased | – | –
3 | Cc1c(CC(=O)NCCCC[C@H](NC(=O)CCN)C(=O)O)c(=O)oc2cc(N)ccc12 [β-Ala-Lys-AMCA, β-Ala-Lys-N(c)-7-amino-4-methylcoumarin-3-acetic acid] | – | – | capable of uptake | showed peptide absorption
